Test results from the NIST ThermoML archive (doi:10.1021/acs.jced.7b00106).

Conditions: Hot wire method

FC(F)(F)/C=C/Cl [(E)-1-chloro-3,3,3-trifluoroprop-1-ene]
Conditions	thermal conductivity [W/m/K]
334.63 K, 179 kPa, Gas	0.01343
334.73 K, 328 kPa, Gas	0.01333
334.82 K, 112 kPa, Gas	0.01357
334.91 K, 97 kPa, Gas	0.01369
334.92 K, 253 kPa, Gas	0.0134
335.16 K, 178 kPa, Gas	0.01354
335.37 K, 112 kPa, Gas	0.01364
335.44 K, 97 kPa, Gas	0.01368
335.71 K, 176 kPa, Gas	0.01352
336 K, 98 kPa, Gas	0.01372
336.29 K, 176 kPa, Gas	0.01354
341.04 K, 7818 kPa, Liquid	0.07607
341.05 K, 502 kPa, Liquid	0.07132
341.06 K, 4000 kPa, Liquid	0.07359
341.11 K, 4008 kPa, Liquid	0.07339
341.11 K, 7812 kPa, Liquid	0.07571
341.12 K, 503 kPa, Liquid	0.07103
341.12 K, 34293 kPa, Liquid	0.08893
341.19 K, 34283 kPa, Liquid	0.08864
341.28 K, 19052 kPa, Liquid	0.08179
341.29 K, 26074 kPa, Liquid	0.08503
341.35 K, 19044 kPa, Liquid	0.08181
341.36 K, 12813 kPa, Liquid	0.07865
341.37 K, 26069 kPa, Liquid	0.08479
341.4 K, 7815 kPa, Liquid	0.07567
341.42 K, 3996 kPa, Liquid	0.0734
341.44 K, 510 kPa, Liquid	0.07095
341.44 K, 12800 kPa, Liquid	0.07849
341.47 K, 114 kPa, Gas	0.01391
341.48 K, 7806 kPa, Liquid	0.07567
341.5 K, 113 kPa, Gas	0.01391
341.5 K, 182 kPa, Gas	0.01442
341.5 K, 4008 kPa, Liquid	0.07332
341.53 K, 498 kPa, Liquid	0.07081
341.53 K, 53967 kPa, Liquid	0.09634
341.54 K, 65483 kPa, Liquid	0.1004
341.56 K, 117 kPa, Gas	0.01424
341.57 K, 34287 kPa, Liquid	0.08857
341.61 K, 65470 kPa, Liquid	0.1001
341.62 K, 53976 kPa, Liquid	0.09608
341.73 K, 464 kPa, Gas	0.01417
341.74 K, 113 kPa, Gas	0.01377
341.74 K, 256 kPa, Gas	0.01435
341.76 K, 26067 kPa, Liquid	0.08459
341.77 K, 19040 kPa, Liquid	0.08164
341.78 K, 181 kPa, Gas	0.01434
341.79 K, 114 kPa, Gas	0.0139
341.8 K, 177 kPa, Gas	0.01425
341.82 K, 7816 kPa, Liquid	0.0756
341.84 K, 117 kPa, Gas	0.01379
341.84 K, 465 kPa, Gas	0.01387
341.84 K, 4002 kPa, Liquid	0.07296
341.87 K, 26056 kPa, Liquid	0.08482
341.88 K, 116 kPa, Gas	0.01443
341.88 K, 490 kPa, Liquid	0.07091
341.88 K, 12799 kPa, Liquid	0.07857
341.88 K, 19048 kPa, Liquid	0.08151
341.91 K, 380 kPa, Gas	0.01419
341.92 K, 7805 kPa, Liquid	0.07534
341.96 K, 4010 kPa, Liquid	0.07316
341.98 K, 253 kPa, Gas	0.01421
341.99 K, 264 kPa, Gas	0.01423
341.99 K, 497 kPa, Liquid	0.07068
342 K, 113 kPa, Gas	0.01367
342.01 K, 464 kPa, Gas	0.0141
342.01 K, 65484 kPa, Liquid	0.1003
342.02 K, 53960 kPa, Liquid	0.09643
342.05 K, 176 kPa, Gas	0.01407
342.09 K, 117 kPa, Gas	0.01369
342.1 K, 180 kPa, Gas	0.01435
342.12 K, 465 kPa, Gas	0.01384
342.12 K, 34281 kPa, Liquid	0.08848
